Reference: US6651382B1, “Method for preventing the release of gramineous plant pollens” (National Agricultural Research Organization, priority 1999, dated 2003)

Tested on: flowering barley line derived from a barley line "Satsuki-Nijo"
Assay: Flowering inhibition test on harvested unflowered barley ears treated with reagent solution
Assay type: in vivo
Method: A flowering barley line derived from a barley line “Satsuki-Nijo” was conventionally cultivated in the fields. At the earing time, unflowered ears immediately after earing were harvested. Each group of three ears was then treated with 10 cc reagent solution containing 1-100 ppm methyl jasmonate as a jasmonic acid derivative in an artificial climate chamber under the following conditions: in the light having a brightness of 120 […] for 14 hours at 25° C.; and in the dark for 10 hours at 15° C.
Flowered ears were transferred to a culture medium for cuttings and cultivated for about 20 days. The number of anthers remaining in a glumaceous flower after self-pollination was measured and used as a control.

[1] = Table 2 (repeated test), reagent concentration 1 ppm
[2] = Table 2 (repeated test), reagent concentration 10 ppm
[3] = Table 2 (repeated test), reagent concentration 100 ppm

SMILES: CC/C=C\CC1C(=O)CCC1CC(=O)OC (stereo not drawn) [Methyl jasmonate, methyl jasmonate]
- Number of remaining anthers per one glumaceous flower (Table 1, reagent concentration 1 ppm, after self-pollination): 0.7
- Number of flowered ears on the 6th day (Table 1, reagent concentration 1 ppm, group of three ears, 10 cc solution): 3
- Number of remaining anthers per one glumaceous flower (Table 1, reagent concentration 10 ppm, after self-pollination): 1.7
- Number of remaining anthers per one glumaceous flower (Table 1, reagent concentration 10 ppm, after self-pollination, listed as methyl jasmonate): more anthers than non-treated ears
- Number of flowered ears on the 6th day (Table 1, reagent concentration 10 ppm, group of three ears, 10 cc solution): 3
- Number of remaining anthers per one glumaceous flower (Table 1, reagent concentration 100 ppm, after self-pollination): 2.1
- Number of remaining anthers per one glumaceous flower (Table 1, reagent concentration 100 ppm, after self-pollination, listed as methyl jasmonate): many more remaining anthers
- Number of flowered ears on the 6th day (Table 1, reagent concentration 100 ppm, group of three ears, 10 cc solution): 0
- Number of flowered ears on the 6th day (Table 1, reagent concentration 100 ppm, group of three ears, 10 cc solution, listed as methyl jasmonate): no flowering was observed
- Number of flowered ears on the 6th day [1]: 3
- Number of remaining anthers per one glumaceous flower [1]: 1.1
- Number of flowered ears on the 6th day [2]: 3
- Number of remaining anthers per one glumaceous flower [2]: 1.7
- Number of flowered ears on the 6th day [3]: 0
- Number of remaining anthers per one glumaceous flower [3]: 2.6
